In ChEMBL document CHEMBL1201862, “PubChem BioAssay data set” (2004):
Active and inactive are the calls of the source.

What was measured:
BJ [1] = assay: cytotoxicity toward Ras-transformed BJeLR fibroblasts, dose response, cell-based, alamar blue fluorescence, cherrypicked samples (AID 2631); type: functional; conditions: Homo sapiens;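 further: confirmatory dose-response assay in RAS-dependent BJ fibroblasts engineered with TERT, LT and ST, with cytotoxicity read by fluorescence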
BJ [2] = assay: cytotoxicity toward BJ-TERT fibroblasts, dose response, cell-based, RAS-independent, luminescence (AID 1933); type: functional; conditions: Homo sapiens
[3] = biological target: Heat shock protein HSP 90-alpha (Homo sapiens, UniProt P07900); assay: Luminescence-based dose response biochemical high throughput screening assay for inhibitors of the Heat Shock Protein 90 (HSP90). [Related pubchem assays: 1831 (Summary AID.), 1846 (Confirmation screen.), 1789 (Primary screen.)]
BJ [4] = assay: cytotoxicity toward BJ-TERT-LT-ST fibroblasts, dose response, cell-based, RAS-independent, luminescence (AID 1935); type: functional; conditions: Homo sapiens;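 further: BJ fibroblasts immortalized with TERT plus LT and ST oncogenes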
[5] = cytotoxicity toward DRD oncogenic fibroblasts, dose response, cell-based, non-viral oncogenic, luminescence (AID 1934); type: functional; conditions: Homo sapiens
BJ [6] = assay: cells; type: functional, cell-based; conditions: Homo sapiens
[7] = biological target: Bifunctional protein GlmU (Mycobacterium tuberculosis, UniProt P9WMN3); assay: Inhibitors of Mycobacterial Glucosamine-1-phosphate acetyl transferase (GlmU). Secondary screen.; set-up: species or system Mycobacterium tuberculosis H37Rv
[8] = biological target: Induced myeloid leukemia cell differentiation protein Mcl-1 (Homo sapiens, UniProt Q07820); type: functional
[9] = biological target: Lytic switch protein BZLF1 (Epstein-Barr virus (strain B95-8) (HHV-4) (Human herpesvirus 4), UniProt P03206); assay: EBV ZTA inhibitors, dose response, counter-screen for EBNA-1 inhibitor project, biochemical, fluorescence polarization, Epstein-Barr virus, 1536-well (AID 2377); set-up: species or system human gammaherpesvirus 4;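 further: fluorescence polarization of Cy5-labelled ZRE DNA probe bound by purified Zta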
[10] = biological target: Epstein-Barr nuclear antigen 1 (Epstein-Barr virus (strain B95-8) (HHV-4) (Human herpesvirus 4), UniProt P03211); assay: EBNA-1 inhibitors, dose response, biochemical, fluorescence polarization, 1536-well (AID 2381); set-up: species or system human gammaherpesvirus 4;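 further: fluorescence polarization of a Cy5 DNA probe bound by EBNA-1 protein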
Vero = Vero cell cytotoxicity, cytotoxicity control for flavivirus capping enzyme inhibitors (AID 588742); type: functional; conditions: Chlorocebus sabaeus
[11] = biological target: Mannose-6-phosphate isomerase (Homo sapiens, UniProt P34949); assay: inhibitors of human PMI, primary screen, biochemical, fluorescence intensity, coupled assay (AID 1209)
[12] = inhibitors of intracellular T. cruzi replication, confirmation, NIH3T3 host cells, beta-gal luminescence (AID 2044); type: functional, cell-based;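 further: intracellular parasites grown in NIH/3T3 mouse fibroblasts as host cells; luminescent beta-galactosidase reporter signal from transgenic T. cruzi replicating inside host cells; inhibitors lower the luminescence signal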
cells [13] = type: functional, cell-based
cells [14] = type: functional, cell-based; remark: listed apart in the source
[15] = HepG2 cell cytotoxicity, dose response, cytotoxicity control, ATP luminescence, cherry-pick, activator set 2 (AID 1053143); type: functional, cell-based
[16] = HeLa cell cytotoxicity, dose response, cytotoxicity control, CellTiter-Glo luminescence, dry powder, set 2 (AID 720593); type: functional, cell-based
[17] = HEK293T cell cytotoxicity, dose response, cytotoxicity control, CellTiter-Glo luminescence, dry powder, set 2 (AID 720595); type: functional, cell-based; conditions: HEK293
[18] = cytotoxicity toward NIH3T3 fibroblasts, dose response, counter-screen, cell-based, ATP luminescence, mouse fibroblasts (AID 2010); type: functional;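 further: cells exposed to compound for about 90 hours before reading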
[19] = RKO cell viability reduction, dose response, CellTiter-Glo luminescence (AID 1117322); type: functional
[20] = HeLa 2N DNA content increase, dose response, cell-based, IC50 (AID 1117349); type: functional
[21] = cytotoxicity toward HT-29 cells – cell-based, CellTiter-Glo luminescence, IC50, dose response (AID 1117330); type: functional
[22] = cytotoxicity toward HCT116 cells – cell-based, CellTiter-Glo luminescence, IC50, dose response (AID 1117332); type: functional; conditions: HCT-116
[23] = HCT116 cell viability decrease, GSK3B pretreatment – CellTiter-Glo, IC50, dose response (AID 1117339); type: functional; conditions: HCT-116
[24] = SNU-C1 cell viability reduction, dose response, CellTiter-Glo luminescence (AID 1117323); type: functional, cell-based
[25] = CellTiter-Glo luminescent dose response of DLD-1 viability loss (AID 1117352); type: functional
[26] = HeLa 4N DNA content increase, dose response, cell-based, IC50 (AID 1117351); type: functional
[27] = Luminescent dose response cell-based high throughput screening assay for inhibitors of the Janus kinase 2 mutant JAK2V617F. [Related pubchem assays: 1446 (Primary screen.), 1521 (Confirmation assay.), 1486 (Counter screen.)]; type: functional
[28] = biological target: Sphingosine 1-phosphate receptor 1 (Homo sapiens, UniProt P21453); assay: Dose Response Cell-Based Assay for Agonists of the Sphingosine 1-Phosphate Receptor 1 (S1P1): Purchased Analogues. [Related pubchem assays: 1192, 373, 439 ]; type: functional
[29] = biological target: Sphingosine 1-phosphate receptor 3 (Homo sapiens, UniProt Q99500); assay: Dose Response Cell-Based Assay for Agonists of the Sphingosine 1-Phosphate Receptor 3 (S1P3): Purchased Analogues. [Related pubchem assays: 373, 439 ]; type: functional
[30] = biological target: Sphingosine 1-phosphate receptor 2 (Homo sapiens, UniProt O95136); assay: Dose Response Cell-Based Assay for Agonists of the Sphingosine 1-Phosphate Receptor 2 (S1P2): Purchased Analogues. [Related pubchem assays: 1192, 373, 439 ]; type: functional
[31] = A High Throughput Confirmatory Assay used to Identify Novel Compounds that Inhibit Mycobacterium Tuberculosis in the absence of Glycerol.; type: functional

Chain of Bifunctional protein GlmU (P9WMN3 whole entry): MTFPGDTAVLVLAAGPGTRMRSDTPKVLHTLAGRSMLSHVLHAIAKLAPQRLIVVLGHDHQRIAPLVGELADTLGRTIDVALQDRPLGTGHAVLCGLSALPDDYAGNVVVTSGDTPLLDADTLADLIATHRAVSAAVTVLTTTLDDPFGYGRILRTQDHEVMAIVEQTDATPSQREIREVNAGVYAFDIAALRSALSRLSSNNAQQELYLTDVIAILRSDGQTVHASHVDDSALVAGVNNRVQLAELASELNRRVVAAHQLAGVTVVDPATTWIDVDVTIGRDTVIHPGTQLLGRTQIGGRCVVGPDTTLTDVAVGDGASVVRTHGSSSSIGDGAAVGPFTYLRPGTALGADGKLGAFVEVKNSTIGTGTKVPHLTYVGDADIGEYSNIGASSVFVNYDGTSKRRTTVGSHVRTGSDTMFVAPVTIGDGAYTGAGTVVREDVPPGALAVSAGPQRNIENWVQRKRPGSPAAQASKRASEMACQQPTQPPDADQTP
Chain of Epstein-Barr nuclear antigen 1 (P03211 whole entry): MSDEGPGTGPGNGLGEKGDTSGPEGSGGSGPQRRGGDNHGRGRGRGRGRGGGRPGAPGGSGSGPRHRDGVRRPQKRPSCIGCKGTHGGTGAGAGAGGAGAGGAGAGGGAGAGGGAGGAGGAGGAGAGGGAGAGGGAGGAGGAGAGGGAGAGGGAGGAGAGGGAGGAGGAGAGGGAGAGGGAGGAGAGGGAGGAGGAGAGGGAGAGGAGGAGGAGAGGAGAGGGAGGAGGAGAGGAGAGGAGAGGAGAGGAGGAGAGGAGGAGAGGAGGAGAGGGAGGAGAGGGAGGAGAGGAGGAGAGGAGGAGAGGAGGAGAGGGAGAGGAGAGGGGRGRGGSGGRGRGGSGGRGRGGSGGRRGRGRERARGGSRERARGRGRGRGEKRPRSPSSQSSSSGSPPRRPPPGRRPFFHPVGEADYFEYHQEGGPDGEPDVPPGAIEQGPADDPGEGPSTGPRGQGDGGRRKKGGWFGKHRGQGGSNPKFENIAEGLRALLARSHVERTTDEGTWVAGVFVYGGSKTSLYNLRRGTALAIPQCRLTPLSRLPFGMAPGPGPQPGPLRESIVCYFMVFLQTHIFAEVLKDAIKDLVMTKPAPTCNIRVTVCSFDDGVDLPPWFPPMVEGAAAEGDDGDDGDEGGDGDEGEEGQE
Chain of Sphingosine 1-phosphate receptor 2 (O95136 whole entry): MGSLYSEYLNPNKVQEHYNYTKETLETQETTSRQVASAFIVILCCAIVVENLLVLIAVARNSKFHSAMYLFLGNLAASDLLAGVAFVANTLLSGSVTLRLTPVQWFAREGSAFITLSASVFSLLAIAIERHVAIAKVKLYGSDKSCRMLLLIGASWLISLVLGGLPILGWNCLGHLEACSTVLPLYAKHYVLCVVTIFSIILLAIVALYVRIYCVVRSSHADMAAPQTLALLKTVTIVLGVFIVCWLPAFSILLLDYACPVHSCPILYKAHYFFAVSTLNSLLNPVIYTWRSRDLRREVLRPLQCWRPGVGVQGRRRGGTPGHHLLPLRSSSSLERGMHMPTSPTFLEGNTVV
Chain of Mannose-6-phosphate isomerase (P34949 whole entry): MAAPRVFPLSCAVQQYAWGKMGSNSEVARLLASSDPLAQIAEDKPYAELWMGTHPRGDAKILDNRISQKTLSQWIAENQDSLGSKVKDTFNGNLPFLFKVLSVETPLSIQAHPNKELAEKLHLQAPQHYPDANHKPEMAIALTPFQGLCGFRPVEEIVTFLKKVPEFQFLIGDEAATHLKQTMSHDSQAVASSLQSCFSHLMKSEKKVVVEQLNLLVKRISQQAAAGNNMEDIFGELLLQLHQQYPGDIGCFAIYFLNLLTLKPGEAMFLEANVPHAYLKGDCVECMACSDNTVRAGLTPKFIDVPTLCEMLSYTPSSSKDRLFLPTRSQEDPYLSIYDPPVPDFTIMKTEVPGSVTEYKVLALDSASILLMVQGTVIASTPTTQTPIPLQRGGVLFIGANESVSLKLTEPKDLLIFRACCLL
Chain of Induced myeloid leukemia cell differentiation protein Mcl-1 (Q07820 whole entry): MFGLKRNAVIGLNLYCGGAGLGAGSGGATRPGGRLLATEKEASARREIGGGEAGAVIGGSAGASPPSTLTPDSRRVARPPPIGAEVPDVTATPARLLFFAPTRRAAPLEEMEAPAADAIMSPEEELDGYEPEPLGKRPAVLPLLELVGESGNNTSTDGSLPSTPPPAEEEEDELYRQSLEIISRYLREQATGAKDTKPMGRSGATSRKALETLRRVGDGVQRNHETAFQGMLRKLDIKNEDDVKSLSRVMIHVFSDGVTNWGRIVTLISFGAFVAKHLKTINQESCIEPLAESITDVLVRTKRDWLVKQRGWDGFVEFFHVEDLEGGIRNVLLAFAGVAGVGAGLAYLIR
Chain of Sphingosine 1-phosphate receptor 1 (P21453 whole entry): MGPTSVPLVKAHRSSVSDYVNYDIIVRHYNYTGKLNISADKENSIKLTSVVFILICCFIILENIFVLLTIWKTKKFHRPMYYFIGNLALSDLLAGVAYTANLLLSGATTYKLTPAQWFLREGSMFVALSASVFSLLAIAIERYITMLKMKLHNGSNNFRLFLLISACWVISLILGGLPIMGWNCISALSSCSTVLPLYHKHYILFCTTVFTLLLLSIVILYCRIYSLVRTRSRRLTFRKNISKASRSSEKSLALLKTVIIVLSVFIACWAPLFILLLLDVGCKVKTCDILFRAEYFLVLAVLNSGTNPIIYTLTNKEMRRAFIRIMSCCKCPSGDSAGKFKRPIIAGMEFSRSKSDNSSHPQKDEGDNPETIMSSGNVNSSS
Chain of Lytic switch protein BZLF1 (P03206 whole entry): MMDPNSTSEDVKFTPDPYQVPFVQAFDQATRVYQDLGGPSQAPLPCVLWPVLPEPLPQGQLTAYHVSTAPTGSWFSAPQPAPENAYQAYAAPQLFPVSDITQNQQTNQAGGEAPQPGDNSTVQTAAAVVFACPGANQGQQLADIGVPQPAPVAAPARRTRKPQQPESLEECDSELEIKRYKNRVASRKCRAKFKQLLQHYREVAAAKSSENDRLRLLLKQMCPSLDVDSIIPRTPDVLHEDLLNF
Chain of Sphingosine 1-phosphate receptor 3 (Q99500 whole entry): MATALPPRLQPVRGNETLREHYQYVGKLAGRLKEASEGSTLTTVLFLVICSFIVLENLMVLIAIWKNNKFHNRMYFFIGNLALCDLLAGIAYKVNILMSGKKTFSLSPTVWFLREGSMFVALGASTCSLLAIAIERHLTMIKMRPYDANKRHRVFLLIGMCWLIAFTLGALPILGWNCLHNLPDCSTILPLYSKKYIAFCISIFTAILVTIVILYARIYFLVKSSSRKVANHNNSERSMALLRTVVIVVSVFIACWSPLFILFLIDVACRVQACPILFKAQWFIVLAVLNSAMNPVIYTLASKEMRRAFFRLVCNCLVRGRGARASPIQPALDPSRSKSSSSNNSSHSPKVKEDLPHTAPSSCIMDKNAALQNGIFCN

Question: Which results are given for `CNC(=S)N/N=C/c1ccc(-c2ccc(C(=O)O)cc2)o1`?
Answer: EC50 (BJ [1]): > 133 µM (inactive); EC50 (BJ [2]): 4.2 µM (active); IC50 [3]: 8.05 µM (active); EC50 (BJ [4]): 17 µM (active); EC50 [5]: 5.6 µM (active); EC50 (BJ [6]): 5.08 µM (active)

Question: For `O=C(/C=C/c1ccc(O)c(O)c1)O[C@H](Cc1ccc(O)c(O)c1)C(=O)O` [ROSMARINIC ACID], which IC50 [7] is on record?
Answer: The IC50 was 84.9 µM (active).

Question: What about the IC50 [8] of the same molecule?
Answer: The IC50 was 2.03 µM (active).

Question: For `COc1cccc(OC)c1C(=O)Nc1nc2cc3c(cc2s1)OCO3`, which IC50 [9] is on record?
Answer: Its IC50 is > 111 µM (not active).

Question: What about the IC50 [10] of the same molecule?
Answer: Its IC50 is 15.5 µM (not active).

Question: What does the source list for `CC(=O)Oc1ccc2c(=O)c(Oc3ccccc3)c(C)oc2c1OC(C)=O`?
Answer: CC50 (Vero): 38.1 µM (active); IC50 [11]: 44.8 µM (active)

Question: With `CCc1cc2c(O)nc(-c3ccccn3)nc2s1` as the molecule, how does the EC50 [12] read?
Answer: The EC50 was 1.38 µM (active).

Question: What about the EC50 (cells [13]) of the same molecule?
Answer: Its EC50 is 28.8 µM (active).

Question: And the EC50 (cells [14])?
Answer: The EC50 was > 350 µM (not active).

Question: And the AC50 [15]?
Answer: Its AC50 is 14.2 µM (active).

Question: And the AC50 [16]?
Answer: Its AC50 is 24.1 µM (active).

Question: What about the AC50 [17] of the same molecule?
Answer: Its AC50 is 34.5 µM (active).

Question: And the EC50 [18]?
Answer: The EC50 was 2.45 µM (active).

Question: With `CC(C)C[C@H](NC(=O)[C@H](CCc1ccccc1)NC(=O)CN1CCOCC1)C(=O)N[C@@H](Cc1ccccc1)C(=O)N[C@@H](CC(C)C)C(=O)[C@@]1(C)CO1` [CARFILZOMIB] as the molecule, how does the IC50 [19] read?
Answer: The IC50 was 0.00394 µM (active).

Question: And the IC50 [20]?
Answer: Its IC50 is > 10 µM (inactive).

Question: What about the IC50 [21] of the same molecule?
Answer: The IC50 was 0.00318 µM (active).

Question: And the IC50 [22]?
Answer: Its IC50 is 0.00558 µM (active).

Question: What about the IC50 [23] of the same molecule?
Answer: The IC50 was 0.00173 µM (active).

Question: What about the IC50 [24] of the same molecule?
Answer: The IC50 was 0.00147 µM (active).

Question: And the IC50 [25]?
Answer: The IC50 was 0.00696 µM (active).

Question: What about the IC50 [26] of the same molecule?
Answer: Its IC50 is > 10 µM (inactive).

Question: With `Cc1ccc(Nc2nc(N)nc(CCl)n2)cc1` as the molecule, how does the IC50 [27] read?
Answer: Its IC50 is 1.75 µM (active).

Question: What does the source list for `Cc1cc(C(=O)N2C(C)CCCC2C)no1` (configuration not stated)?
Answer: EC50 [28]: > 50 µM (not active); EC50 [29]: > 50 µM (not active); EC50 [30]: > 10 µM (not active)

Question: Which IC50 [31] does the source give for `CC(C)OC(=O)c1ccc(NC(=S)NC(=O)c2cncc(Br)c2)cc1` here?
Answer: The IC50 was > 100 µM (active).
